Data set [1] concerns Mus musculus. Put plainly: Anti-inflammatory activity in Swiss albino Mus musculus (mouse) assessed as inhibition of carrageenan-induced paw edema at 100 mg/kg, po administered 60 min prior to crrageenan-challenge measured at 90 min relative to control. The format is functional. A general note: Carrageenan injected into the paw causes an acute inflammation.
Data set [2] has as its system Candida albicans. Description: Antifungal activity against Candida albicans ATCC 10231 after 48 hr by two-fold serial dilution method. Conditions: ATCC 10231, 48 h. The data set is classed as functional.
For data set [3], the system named is Pseudomonas aeruginosa. Description: Antibacterial activity against Pseudomonas aeruginosa ATCC 27853 after 24 hr by two-fold serial dilution method. The data set is classed as functional. The conditions noted are these: ATCC 27853, 24 h.
The subject of data set [4] is Enterococcus faecalis. Put plainly: Antibacterial activity against Enterococcus faecalis clinical isolate after 24 hr by two-fold serial dilution method. The format is functional.
For data set [5], the system named is Staphylococcus aureus. Put plainly: Antibacterial activity against Staphylococcus aureus ATCC 29213 after 24 hr by two-fold serial dilution method. The data set is classed as functional. Conditions: ATCC 29213, 24 h.
The subject of data set [6] is Enterococcus faecalis. Put plainly: Antibacterial activity against Enterococcus faecalis ATCC 29212 after 24 hr by two-fold serial dilution method. The data set is classed as functional. Conditions: ATCC 29212, 24 h.
The subject of data set [7] is Mus musculus. Description: Ulcerogenic activity in p-benzoquinone-challenged Swiss albino Mus musculus (mouse) at 100 mg/kg, po administered 60 min prior to p-benzoquinone-challenge by microscopic analysis. The data set is classed as toxicity, organism-based. On the set-up: dose 100 mg/kg, route oral. The conditions noted are these: in vivo, 1 h.
Data set [8] concerns Mus musculus. Description: Anti-inflammatory activity in Swiss albino Mus musculus (mouse) assessed as inhibition of carrageenan-induced paw edema at 100 mg/kg, po administered 60 min prior to crrageenan-challenge measured at 180 min relative to control. The data set is classed as functional.
Data set [9] has as its system Pichia kudriavzevii. Put plainly: Antifungal activity against Pichia kudriavzevii ATCC 6258 after 48 hr by two-fold serial dilution method. The conditions noted are these: ATCC 6258, 48 h. The format is functional.
The test system of data set [10] is Mus musculus. Put plainly: Anti-inflammatory activity in Swiss albino Mus musculus (mouse) assessed as inhibition of carrageenan-induced paw edema at 100 mg/kg, po administered 60 min prior to crrageenan-challenge measured at 270 min relative to control. The format is functional.
Data set [11] deals with Mus musculus. Description: Anti-inflammatory activity in Swiss albino Mus musculus (mouse) assessed as inhibition of carrageenan-induced paw edema at 100 mg/kg, po administered 60 min prior to crrageenan-challenge measured at 360 min relative to control. The format is functional.
In data set [12] the test system is Staphylococcus aureus. Description: Antibacterial activity against methicillin-resistant Staphylococcus aureus clinical isolate after 24 hr by two-fold serial dilution method. The data set is classed as functional.
The subject of data set [13] is Escherichia coli. Put plainly: Antibacterial activity against Escherichia coli clinical isolate expressing extended spectrum beta-lactamase after 24 hr by two-fold serial dilution method. The data set is classed as functional.
Data set [14] has as its system Mus musculus. Description: Analgesic activity in Swiss albino Mus musculus (mouse) assessed as inhibition of p-benzoquinone-induced writhing at 100 mg/kg, po administered 60 min prior to p-benzoquinone-challenge measured up to 15 min relative to control. The data set is classed as functional.
The test system of data set [15] is Pseudomonas aeruginosa. Description: Antibacterial activity against Pseudomonas aeruginosa cloinical isolate after 24 hr by two-fold serial dilution method. The data set is classed as functional.
Data set [16] has as its system Escherichia coli. Description: Antibacterial activity against Escherichia coli ATCC 25922 after 24 hr by two-fold serial dilution method. The data set is classed as functional. The conditions noted are these: ATCC 25922, 24 h.
Data set [17] concerns Mus musculus. Put plainly: Anti-inflammatory activity in Swiss albino Mus musculus (mouse) assessed as inhibition of carrageenan-induced paw edema at 10 mg/kg, po administered 60 min prior to crrageenan-challenge measured at 180 min relative to control. The data set is classed as functional.
Data set [18] concerns Mus musculus. Put plainly: Anti-inflammatory activity in Swiss albino Mus musculus (mouse) assessed as inhibition of carrageenan-induced paw edema at 10 mg/kg, po administered 60 min prior to crrageenan-challenge measured at 360 min relative to control. The format is functional.
In data set [19] the test system is Mus musculus. Description: Anti-inflammatory activity in Swiss albino Mus musculus (mouse) assessed as inhibition of carrageenan-induced paw edema at 10 mg/kg, po administered 60 min prior to crrageenan-challenge measured at 270 min relative to control. The data set is classed as functional.
Data set [20] deals with Mus musculus. Description: Anti-inflammatory activity in Swiss albino Mus musculus (mouse) assessed as inhibition of carrageenan-induced paw edema at 10 mg/kg, po administered 60 min prior to crrageenan-challenge measured at 90 min relative to control. The format is functional.

Values after ≈ are worked out from the molar mass of the structure shown.

For orientation: inhibition in vivo means the relative decrease from the control value, in per cent. The term MIC denotes the least concentration at which growth counts as inhibited. A higher MIC goes with a need for much substance. As to `O=c1ccc(-c2ccccc2)nn1CCN1CCN(c2ccc(Cl)cc2)CC1`, the inhibition in vivo at 100 mg/kg in [1] was 16.2%; in data set [8], 14.9%; in data set [10], 14.8%; in data set [11], 12.1%; in [14] it was 23.3%. For the same compound, the MIC in data set [2] is 32 µg/mL (≈ 81 µM); in [3] it was 64 µg/mL (≈ 162 µM); in [4], 64 µg/mL (≈ 162 µM); in data set [5], 64 µg/mL (≈ 162 µM); in [6] it was 64 µg/mL (≈ 162 µM); in data set [9] it was 32 µg/mL (≈ 81 µM). The minimal inhibitory concentration (MIC) in [12] was determined as 128 µg/mL (≈ 324 µM); in [13], 64 µg/mL (≈ 162 µM); in data set [15], 64 µg/mL (≈ 162 µM); in [16] it was 64 µg/mL (≈ 162 µM). Besides, the Activity result in data set [7] was “Non-toxic”.
In the case of `O=c1ccc(-c2ccccc2)nn1CCN1CCN(c2ccc(F)cc2)CC1`, the inhibition in vivo at 100 mg/kg amounted to 10.6% in data set [1]; 26.3% in data set [8]; 29.9% in data set [10]; 19.5% in data set [11]; 16.8% in data set [14]. In addition, the minimum inhibitory concentration (MIC) in data set [2] stood at 32 µg/mL (≈ 84.6 µM); in data set [3], 64 µg/mL (≈ 169 µM); in [4], 64 µg/mL (≈ 169 µM); in [5], 64 µg/mL (≈ 169 µM); in data set [6] it was 64 µg/mL (≈ 169 µM); in data set [9] it was 32 µg/mL (≈ 84.6 µM). In addition, the minimal inhibitory concentration (MIC) in [12] stood at 128 µg/mL (≈ 338 µM); in [13], 64 µg/mL (≈ 169 µM); in data set [15], 64 µg/mL (≈ 169 µM); in data set [16] it was 64 µg/mL (≈ 169 µM). In addition, the Activity entry in data set [7] was “Non-toxic”.
In the case of `COc1ccc(-c2ccc(=O)n(CCN3CCN(c4ccc(Cl)cc4)CC3)n2)cc1`, the inhibition in vivo at 100 mg/kg in data set [1] was 16.9%; in data set [8], 19.8%; in data set [10], 27.5%; in data set [11], 26.2%; in [14], 44.4%. The minimum inhibitory concentration (MIC) is 32 µg/mL (≈ 75.3 µM) in [2]; 64 µg/mL (≈ 151 µM) in data set [3]; 64 µg/mL (≈ 151 µM) in [4]; 64 µg/mL (≈ 151 µM) in [5]; 64 µg/mL (≈ 151 µM) in data set [6]; 32 µg/mL (≈ 75.3 µM) in data set [9]. For the same compound, the MIC stood at 128 µg/mL (≈ 301 µM) in data set [12], 64 µg/mL (≈ 151 µM) in data set [13], 64 µg/mL (≈ 151 µM) in [15] and 64 µg/mL (≈ 151 µM) in data set [16]. Further, the Activity entry in [7] is “Toxic”.
Take `COc1ccc2c(c1)c(CC(=O)O)c(C)n2C(=O)c1ccc(Cl)cc1` [INDOMETHACIN]: the inhibition in vivo at 10 mg/kg in [17] was 36.9%; in data set [18], 39.4%; in data set [19], 37.6%; in [20], 25.3%.
